Reference: PMC8234143, “Synthesis and Antiviral Evaluation of Nucleoside Analogues Bearing One Pyrimidine Moiety and Two D-Ribofuranosyl Residues” (Molecules, 2021)

Legend:
[1] = in vitro; details: dog
[2] = tested on: Vero cells
[3] = tested on: HuTu-80; experiment: Cytotoxicity assay (Cytell Cell Imaging, DAPI/propidium iodide); format: cell-based; details: Homo sapiens, HuTu80; cytotoxic activity, duodenal adenocarcinoma; read-out: IC50 Cancer Cell Lines HuTu-80
[4] = tested on: PC-3; experiment: as above; format: cell-based; details: cytotoxic activity, human prostate adenocarcinoma, read-out: IC50 Cancer Cell Lines PC-3
[5] = tested on: Coxsackie B3 virus; experiment: Antiviral (cytoprotection, MTT) assay against Coxsackie B3 virus in Vero cells; format: cell-based, coxsackievirus B3; details: for SI: CC50/IC50 ratio, Coxsackie B3 / Vero; for IC50: Enterovirus B, B3, Vero, 48 h, 50% inhibition of virus replication, Vero cells
[6] = in vitro; details: African green monkey, CC50, Vero cells, MTT; concentration causing 50% cell death
[7] = tested on: M-HeLa; experiment: Cytotoxicity assay (Cytell Cell Imaging, DAPI/propidium iodide); format: cell-based; details: cytotoxic activity, human cervix epitheloid carcinoma, read-out: IC50 Cancer Cell Lines M-HeLa
[8] = tested on: A/Puerto Rico/8/34 (H1N1) influenza virus; experiment: Antiviral (cytoprotection, MTT) assay against influenza virus in MDCK cells; format: cell-based; details: for SI: CC50/IC50 ratio, influenza H1N1 / MDCK; for IC50: Influenza A virus, H1N1, MDCK, 48 h, 50% inhibition of virus replication, MDCK cells, read-out: IC50
[9] = tested on: WI-38; experiment: Cytotoxicity assay (Cytell Cell Imaging, DAPI/propidium iodide); format: cell-based; details: cytotoxic activity, normal human lung fibroblasts, read-out: IC50 Normal Cell Line WI-38

Row | Compound | CC50 [1] [µM] | cytotoxicity against the Vero cell line (in words) [2] | IC50 [3] [µM] | IC50 [4] [µM] | SI [5] | IC50 [5] [µM] | CC50 [6] [µM] | IC50 [7] [µM] | SI [8] | IC50 [8] [µM] | IC50 [9] [µM]
1 | O=c1c2nc3ccccc3nc2n(CCCCc2cn(C3OC(CO)C(O)C3O)nn2)c(=O)n1CCCCc1cn(C2OC(CO)C(O)C2O)nn1 (stereo not shown) [Compound 5i] | > 414 | not cytotoxic | > 100 | > 100 | 1 | > 414 | > 414 | 71 ± 6.1 | 17 | 24.3 ± 3.2 | > 100
2 | Cc1cc(=O)n(CCCCc2cn(C3OC(CO)C(O)C3O)nn2)c(=O)n1CCCCc1cn(C2OC(CO)C(O)C2O)nn1 (stereo not shown) [Compound 2i] | > 471 | not cytotoxic | > 100 | > 100 | 1 | > 471 | > 471 | 100 ± 8.5 | 8 | 57.5 ± 7.1 | > 100
